From paper PMC12728655, “Engineering an Artificial Myxopyronin Derivative with Enhanced Metabolic Stability via Mutasynthesis” (JACS Au, 2025)
≈ marks a conversion by molar mass, not a printed value.

System: Rif^R-M. tuberculosis H37Rv
Test: microbe, parasite or virus in culture
Type: cell-based
Conditions: Mycobacterium tuberculosis

Structure (SMILES)	MIC [mg/L]
CCC/C(C)=C/C=C(\C)C(=O)c1c(O)cc([C@H](C)CC/C=C/NC(=O)OC)oc1=O [MYX A (1), myxopyronins A]	2 to 4 (≈ 4.79 to 9.58 µM)
COC(=O)N/C=C/CC[C@@H](C)c1cc(O)c(C(=O)/C(C)=C/C=C(\C)CCC(F)(F)F)c(=O)o1 [MYX (8)]	1 (≈ 2.12 µM)
CO[C@H]1/C=C/O[C@@]2(C)Oc3c(C)c(O)c4c(O)c(c(/C=N/N5CCN(C)CC5)c(O)c4c3C2=O)NC(=O)/C(C)=C\C=C\[C@H](C)[C@H](O)[C@@H](C)[C@@H](O)[C@@H](C)[C@H](OC(C)=O)[C@@H]1C [rifampin]	> 64
